In PubChem BioAssay AID1918956 (Molecular Pharmacology Branch, DTP, NCI, 2023):
“And” between values parts separate entries of the source, which are not always exact repeats. Equal entries are not always repeated.

System: OVCAR-5 complex spheroids, viability
Experiment: Anticancer human tumor OVCAR-5 cell line growth inhibition;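 note: spheroids exposed to agents for seven days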;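 for viability, T/C: 100% = DMSO vehicle control wells viability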
Details: for viability, T/C: stronger effect = lower value
Outline: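 Drug combinations with the LSD1 inhibitor iadademstat tested on tumor cells co-cultured as spheroids with endothelial cells and mesenchymal stem cells. Concentrations descended in half-log increments from clinical Cmax or 10 microM.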

[1] = curve of first compound, second compound 0.1 µM
[2] = curve of first compound, second compound 0.316 µM
[3] = curve of first compound, second compound 1 µM
[4] = curve of first compound, second compound 3.16 µM
[5] = curve of first compound, second compound 10 µM
[6] = second compound 0.1 µM, first compound 0.00316 µM
[7] = second compound 0.1 µM, first compound 0.01 µM
[8] = second compound 0.1 µM, first compound 0.0316 µM
[9] = second compound 0.1 µM, first compound 0.1 µM
[10] = second compound 0.1 µM, first compound 0.316 µM
[11] = second compound 0.1 µM, first compound 1 µM
[12] = second compound 0.316 µM, first compound 0.00316 µM
[13] = second compound 0.316 µM, first compound 0.01 µM
[14] = second compound 0.316 µM, first compound 0.0316 µM
[15] = second compound 0.316 µM, first compound 0.1 µM
[16] = second compound 0.316 µM, first compound 0.316 µM
[17] = second compound 0.316 µM, first compound 1 µM
[18] = second compound 1 µM, first compound 0.00316 µM
[19] = second compound 1 µM, first compound 0.01 µM
[20] = second compound 1 µM, first compound 0.0316 µM
[21] = second compound 1 µM, first compound 0.1 µM
[22] = second compound 1 µM, first compound 0.316 µM
[23] = second compound 1 µM, first compound 1 µM
[24] = second compound 3.16 µM, first compound 0.00316 µM
[25] = second compound 3.16 µM, first compound 0.01 µM
[26] = second compound 3.16 µM, first compound 0.0316 µM
[27] = second compound 3.16 µM, first compound 0.1 µM
[28] = second compound 3.16 µM, first compound 0.316 µM
[29] = second compound 3.16 µM, first compound 1 µM
[30] = second compound 10 µM, first compound 0.00316 µM
[31] = second compound 10 µM, first compound 0.01 µM
[32] = second compound 10 µM, first compound 0.0316 µM
[33] = second compound 10 µM, first compound 0.1 µM
[34] = second compound 10 µM, first compound 0.316 µM
[35] = second compound 10 µM, first compound 1 µM
[36] = second compound 0.1 µM, first compound 3.16 µM
[37] = second compound 0.1 µM, first compound 10 µM
[38] = second compound 0.316 µM, first compound 3.16 µM
[39] = second compound 0.316 µM, first compound 10 µM
[40] = second compound 1 µM, first compound 3.16 µM
[41] = second compound 1 µM, first compound 10 µM
[42] = second compound 3.16 µM, first compound 3.16 µM
[43] = second compound 3.16 µM, first compound 10 µM
[44] = second compound 10 µM, first compound 3.16 µM
[45] = second compound 10 µM, first compound 10 µM

SMILES | IC50 [1] [nM] | IC50 [2] [nM] | IC50 [3] [nM] | IC50 [4] [nM] | IC50 [5] [nM] | viability, T/C [8] [%] | viability, T/C [9] [%] | viability, T/C [10] [%] | viability, T/C [11] [%] | viability, T/C [14] [%] | viability, T/C [15] [%] | viability, T/C [16] [%] | viability, T/C [17] [%] | viability, T/C [20] [%] | viability, T/C [21] [%] | viability, T/C [22] [%] | viability, T/C [26] [%] | viability, T/C [27] [%] | viability, T/C [32] [%] | viability, T/C [33] [%] | other results
Nc1ncn(C2CC(O)C(CO)O2)c(=O)n1 (centres undefined) + NC1CC1c1ccc(-c2cccc(O)c2)cc1 | > 1000 | > 1000 | > 1000 | > 1000 | > 1000 | 83.4 | 74.2 | 68.2 | 65.8 | 87.4 | 70.5 | 70.2 | 66.2 | 87.6 | 66.1 | 67.8 | 70.3 | 72 | 72 | 60.3 | viability, T/C [6]: 103%; viability, T/C [7]: 98.5%; viability, T/C [12]: 93.6%; viability, T/C [13]: 98.5%; viability, T/C [18]: 94.9%; viability, T/C [19]: 99.6%; viability, T/C [23]: 66.7%; viability, T/C [24]: 89%; viability, T/C [25]: 85.9%; viability, T/C [28]: 61.1%; viability, T/C [29]: 64.5%; viability, T/C [30]: 83%; viability, T/C [31]: 80.1%; viability, T/C [34]: 58%; viability, T/C [35]: 61.2%
O=C(c1cc(Cc2n[nH]c(=O)c3ccccc23)ccc1F)N1CCN(C(=O)C2CC2)CC1 | – | – | – | – | – | – | – | – | – | – | – | – | – | – | – | – | – | – | – | – | viability, T/C (compound 0.0316 µM): 92.2% and 111%; viability, T/C (compound 0.1 µM): 109% and 98.7%; viability, T/C (compound 0.316 µM): 95.8% and 102%; viability, T/C (compound 1 µM): 90.8% and 91.7%; viability, T/C (compound 3.16 µM): 87.7% and 73.7%; viability, T/C (compound 10 µM): 79.7% and 69.6%; IC50 (curve of compound): > 10000 nM
COc1ccc([C@@H](O)c2cc(-c3ncnc4cc(N5CCOCC5)ccc34)c(F)cc2Cl)nn1 + NC1CC1c1ccc(-c2cccc(O)c2)cc1 | 625 | 740 | 419 | 396 | 300 | 80.8 | 72.6 | 55.3 | 46.4 | 92.3 | 79.1 | 61.4 | 45.3 | 86.3 | 73.4 | 57.1 | 84 | 68 | 79.1 | 65.3 | viability, T/C [36]: 29.5%; viability, T/C [37]: 16.4%; viability, T/C [38]: 31.8%; viability, T/C [39]: 18.1%; viability, T/C [23]: 31.7%; viability, T/C [40]: 25.8%; viability, T/C [41]: 16.7%; viability, T/C [28]: 49.9%; viability, T/C [29]: 38.8%; viability, T/C [42]: 31.6%; viability, T/C [43]: 15.9%; viability, T/C [34]: 46.7%; viability, T/C [35]: 36.6%; viability, T/C [44]: 29.6%; viability, T/C [45]: 16.6%
CC(C)c1c(-c2ccccc2)nc2c(C#N)c[nH]n2c1=O + NC1CCC(NC2CC2c2ccccc2)CC1 | > 10000 | > 10000 | > 10000 | > 10000 | > 10000 | 114 | 124 | 108 | 130 | 119 | 122 | 114 | 104 | 110 | 105 | 111 | 92.9 | 102 | 88.5 | 81.5 | viability, T/C [36]: 113%; viability, T/C [37]: 117%; viability, T/C [38]: 118%; viability, T/C [39]: 121%; viability, T/C [23]: 113%; viability, T/C [40]: 115%; viability, T/C [41]: 106%; viability, T/C [28]: 108%; viability, T/C [29]: 101%; viability, T/C [42]: 89.3%; viability, T/C [43]: 93.5%; viability, T/C [34]: 77.4%; viability, T/C [35]: 79.9%; viability, T/C [44]: 82.7%; viability, T/C [45]: 79.3%
CC[C@@]1(O)C(=O)OCc2c1cc1n(c2=O)Cc2cc3c(CN(C)C)c(O)ccc3nc2-1 + NC1CC1c1ccc(-c2cccc(O)c2)cc1 | 3.05 | 3.4 | 2.31 | 2.27 | 2.32 | 35.6 | 18.8 | – | – | 33 | 19.8 | – | – | 34.4 | 18.4 | – | 33.4 | 18.7 | 37.7 | 20.7 | viability, T/C (second compound 0.1 µM, first compound 0.000316 µM): 96.1%; viability, T/C (second compound 0.1 µM, first compound 0.001 µM): 83.5%; viability, T/C [6]: 47.5%; viability, T/C [7]: 32.3%; viability, T/C (second compound 0.316 µM, first compound 0.000316 µM): 102%; viability, T/C (second compound 0.316 µM, first compound 0.001 µM): 87.3%; viability, T/C [12]: 48.9%; viability, T/C [13]: 34.3%; viability, T/C (second compound 1 µM, first compound 0.000316 µM): 101%; viability, T/C (second compound 1 µM, first compound 0.001 µM): 78.3%; viability, T/C [18]: 38.6%; viability, T/C [19]: 30.5%; viability, T/C (second compound 3.16 µM, first compound 0.000316 µM): 88.1%; viability, T/C (second compound 3.16 µM, first compound 0.001 µM): 78.8%; viability, T/C [24]: 37.9%; viability, T/C [25]: 33.1%; viability, T/C (second compound 10 µM, first compound 0.000316 µM): 93.3%; viability, T/C (second compound 10 µM, first compound 0.001 µM): 75.6%; viability, T/C [30]: 40.1%; viability, T/C [31]: 31.8%
CC(C)c1c(-c2ccccc2)nc2c(C#N)c[nH]n2c1=O | – | – | – | – | – | – | – | – | – | – | – | – | – | – | – | – | – | – | – | – | viability, T/C (compound 0.0316 µM): 117% and 105%; viability, T/C (compound 0.1 µM): 108% and 94.7%; viability, T/C (compound 0.316 µM): 107% and 104%; viability, T/C (compound 1 µM): 107% and 102%; viability, T/C (compound 3.16 µM): 117% and 104%; viability, T/C (compound 10 µM): 104% and 100%; IC50 (curve of compound): > 10000 nM
COc1ccc([C@@H](O)c2cc(-c3ncnc4cc(N5CCOCC5)ccc34)c(F)cc2Cl)nn1 + NC1CCC(NC2CC2c2ccccc2)CC1 | 1910 | 1360 | 1920 | 1610 | 992 | 88.3 | 91.5 | 79 | 56 | 99.3 | 93.1 | 69.6 | 54.5 | 88.2 | 80.2 | 66.4 | 93.3 | 83.2 | 82.5 | 83 | viability, T/C [36]: 46%; viability, T/C [37]: 26.1%; viability, T/C [38]: 40%; viability, T/C [39]: 26%; viability, T/C [23]: 60.9%; viability, T/C [40]: 44.2%; viability, T/C [41]: 28%; viability, T/C [28]: 69.3%; viability, T/C [29]: 57.5%; viability, T/C [42]: 40.5%; viability, T/C [43]: 26.1%; viability, T/C [34]: 63%; viability, T/C [35]: 50.8%; viability, T/C [44]: 35.8%; viability, T/C [45]: 25.6%
COc1cc(Nc2ncc3c(n2)-c2ccc(Cl)cc2C(c2c(F)cccc2OC)=NC3)ccc1C(=O)O + NC1CCC(NC2CC2c2ccccc2)CC1 | > 1000 | > 1000 | 999 | > 1000 | > 1000 | 83.5 | 61 | 64.1 | 54.6 | 78.4 | 64 | 57.3 | 56.6 | 80.2 | 62.7 | 59.8 | 75.2 | 59.3 | 79.7 | 57.6 | viability, T/C [6]: 103%; viability, T/C [7]: 99.1%; viability, T/C [12]: 94.5%; viability, T/C [13]: 93.2%; viability, T/C [18]: 87.3%; viability, T/C [19]: 90.3%; viability, T/C [23]: 47.4%; viability, T/C [24]: 83.6%; viability, T/C [25]: 83.7%; viability, T/C [28]: 60.7%; viability, T/C [29]: 52.5%; viability, T/C [30]: 83.5%; viability, T/C [31]: 78.7%; viability, T/C [34]: 55.8%; viability, T/C [35]: 45.5%
